Consider 24 molecules from patent US10183950B2, “Thienopyrimidine inhibitors of atypical protein kinase C” (Cancer Research Technology Limited, priority 2011, dated 2019).

Molecules are shown by their SMILES.

Broadly, the IC50 is the midpoint of a concentration-inhibition curve.

The experiment concerns the target T1, kinase-domain human PKCι (Homo sapiens, UniProt P41743).
T1 construct: Recombinant, kinase-domain human PKCι is expressed and purified in-house; made in house
T1 sequence (P41743 254-522 limits assumed): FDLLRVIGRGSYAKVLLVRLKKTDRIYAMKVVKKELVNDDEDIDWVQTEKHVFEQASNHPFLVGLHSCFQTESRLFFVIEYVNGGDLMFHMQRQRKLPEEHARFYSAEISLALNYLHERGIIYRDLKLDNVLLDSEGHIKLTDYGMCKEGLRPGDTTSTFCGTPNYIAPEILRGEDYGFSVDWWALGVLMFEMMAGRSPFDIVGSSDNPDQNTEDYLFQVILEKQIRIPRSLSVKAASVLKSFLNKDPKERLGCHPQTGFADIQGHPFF
As to the kind of experiment: PKCι IC50 IMAP fluorescence polarisation assay, kinase-domain enzyme. Type of experiment: biochemical. To be noted: kinase domain PKCi at 2 μM ATP; read-out: IC50 in IMAP assay against kinase domain PKCi (Activity). A general note: Fluorescence polarisation rises when a labelled molecule tumbles more slowly, as on binding a larger partner.

`CC[C@H](N)COc1nc(-c2ccncc2)nc2sc3c(c12)CCCC3` [compound 150, (S)-1-(2-Pyridin-4-yl-5,6,7,8-tetrahydro-benzo[4,5]thieno[2,3-d]pyrimidin-4-yloxymethyl)-propylamine]: the IC50 is 1 to 10 µM.

For the molecule `CC(C)[C@H](N)COc1nc(-c2ccncc2)nc2sc3c(c12)CCCC3` [compound 151, (S)-2-Methyl-1-(2-pyridin-4-yl-5,6,7,8-tetrahydro-benzo[4,5]thieno[2,3-d]pyrimidin-4-yloxymethyl)-propylamine], the IC50 lay within 1 to 10 µM.

For `c1cc(-c2nc(OC3CNC3)c3c4c(sc3n2)CCCC4)ccn1` [compound 152, 4-(Azetidin-3-yloxy)-2-pyridin-4-yl-5,6,7,8-tetrahydro-benzo[4,5]thieno[2,3-d]pyrimidine], the IC50 is 1 to 10 µM.

Regarding `c1cc(-c2nc(OC[C@H]3CCCN3)c3c4c(sc3n2)CCCC4)ccn1` [compound 153, 2-Pyridin-4-yl-4-((R)-1-pyrrolidin-2-ylmethoxy)-5,6,7,8-tetrahydro-benzo[4,5]thieno[2,3-d]pyrimidine], the IC50 was in the range of 1 to 10 µM.

In the case of `c1cc(-c2nc(OC[C@@H]3CCCN3)c3c4c(sc3n2)CCCC4)ccn1` [compound 154, 2-Pyridin-4-yl-4-((S)-1-pyrrolidin-2-ylmethoxy)-5,6,7,8-tetrahydro-benzo[4,5]thieno[2,3-d]pyrimidine], the IC50 lay within 1 to 10 µM.

As to `N[C@H](COc1nc(-c2ccncc2)nc2sc3c(c12)CCCC3)c1ccccc1` [compound 155, (S)-1-Phenyl-2-(2-pyridin-4-yl-5,6,7,8-tetrahydro-benzo[4,5]thieno[2,3-d]pyrimidin-4-yloxy)-ethylamine], the IC50 was 1 to 10 µM.

Consider `N[C@H](COc1nc(-c2ccncc2)nc2sc3c(c12)CCCC3)C1CCCCC1` [compound 156, (S)-1-cyclohexyl-2-(2-pyridin-4-yl-5,6,7,8-tetrahydro-benzo[4,5]thieno[2,3-d]pyrimidin-4-yloxy)-ethylamine], for which the half-maximal inhibitory concentration (IC50) is 1 to 10 µM.

Take `N[C@H](COc1nc(-c2ccncc2)nc2sc3c(c12)CCCC3)CC1CCCCC1` [compound 157, (S)-2-Cyclohexyl-1-(2-pyridin-4-yl-5,6,7,8-tetrahydro-benzo[4,5]thieno[2,3-d]pyrimidin-4-yloxymethyl)-ethylamine]: the IC50 is 1 to 10 µM.

Regarding `N[C@H](COc1nc(-c2ccncc2)nc2sc3c(c12)CCCC3)Cc1c[nH]c2ccccc12` [compound 158, (S)-2-(1H-Indol-3-yl)-1-(2-pyridin-4-yl-5,6,7,8-tetrahydro-benzo[4,5]thieno[2,3-d]pyrimidin-4-yloxymethyl)-ethylamine], the IC50 lay within 10 to 40 µM.

As to `COc1ccc(C[C@H](N)COc2nc(-c3ccncc3)nc3sc4c(c23)CCCC4)cc1` [compound 159, (S)-1-(4-methoxy-benzyl)-2-(2-pyridin-4-yl-5,6,7,8-tetrahydro-benzo[4,5]thieno [2,3-d]pyrimidin-4-yloxy)-ethylamine], the IC50 lay in the range of 1 to 10 µM.

Take `N[C@H](COc1nc(-c2ccncc2)nc2sc3c(c12)CCCC3)Cc1ccc2ccccc2c1` [compound 160, (S)-1-Naphthalen-2-ylmethyl-2-(2-pyridin-4-yl-5,6,7,8-tetrahydro-benzo[4,5]thieno[2,3-d]pyrimidin-4-yloxy)-ethylamine]: the IC50 lay in the range of 10 to 40 µM.

`N[C@H](COc1nc(-c2ccncc2)nc2sc3c(c12)CCCC3)Cc1cccc2ccccc12` [compound 161, (S)-1-Naphthalen-1-ylmethyl-2-(2-pyridin-4-yl-5,6,7,8-tetrahydro-benzo[4,5]thieno[2,3-d]pyrimidin-4-yloxy)-ethylamine]: the IC50 lay within 1 to 10 µM.

As to `N[C@H](COc1nc(-c2ccncc2)nc2sc3c(c12)CCCC3)Cc1ccc(F)cc1` [compound 162, (S)-1-(4-Fluoro-benzyl)-2-(2-pyridin-4-yl-5,6,7,8-tetrahydro-benzo[4,5]thieno[2,3-d]pyrimidin-4-yloxy)-ethylamine], the IC50 was 10 to 40 µM.

In the case of `N[C@H](COc1nc(-c2ccncc2)nc2sc3c(c12)CCCC3)Cc1cccc(F)c1` [compound 163, (S)-1-(3-Fluoro-benzyl)-2-(2-pyridin-4-yl-5,6,7,8-tetrahydro-benzo[4,5]thieno[2,3-d]pyrimidin-4-yloxy)-ethylamine], the IC50 lay within 1 to 10 µM.

As for `N[C@H](COc1nc(-c2ccncc2)nc2sc3c(c12)CCCC3)Cc1ccccc1F` [compound 164, (S)-1-(2-Fluoro-benzyl)-2-(2-pyridin-4-yl-5,6,7,8-tetrahydro-benzo[4,5]thieno[2,3-d]pyrimidin-4-yloxy)-ethylamine], the IC50 lay in the range of 1 to 10 µM.

As for `Cc1cccc(C[C@H](N)COc2nc(-c3ccncc3)nc3sc4c(c23)CCCC4)c1` [compound 165, (S)-1-(3-Methyl-benzyl)-2-(2-pyridin-4-yl-5,6,7,8-tetrahydro-benzo[4,5]thieno[2,3-d]pyrimidin-4-yloxy)-ethylamine], the IC50 was in the range of 1 to 10 µM.

In the case of `Cc1ccc(C[C@H](N)COc2nc(-c3ccncc3)nc3sc4c(c23)CCCC4)cc1` [compound 166, (S)-1-(4-Methyl-benzyl)-2-(2-pyridin-4-yl-5,6,7,8-tetrahydro-benzo[4,5]thieno[2,3-d]pyrimidin-4-yloxy)-ethylamine], the IC50 lay in the range of 1 to 10 µM.

On to `N[C@H](CCc1ccccc1)COc1nc(-c2ccncc2)nc2sc3c(c12)CCCC3` [compound 167, (R)-3-Phenyl-1-(2-pyridin-4-yl-5,6,7,8-tetrahydro-benzo[4,5]thieno[2,3-d]pyrimidin-4-yloxymethyl)-propylamine], for which the IC50 lay in the range of 10 to 40 µM.

As to `N[C@H](COc1nc(-c2ccncc2)nc2sc3c(c12)CCCC3)Cc1cccs1` [compound 168, (S)-2-(2-Pyridin-4-yl-5,6,7,8-tetrahydro-benzo[4,5]thieno[2,3-d]pyrimidin-4-yloxy)-1-thiophen-2-ylmethyl-ethylamine], the IC50 fell in the range of 1 to 10 µM.

Take `COc1ccc(C[C@@H](N)COc2nc(-c3ccncc3)nc3sc4c(c23)CCCC4)cc1` [compound 169, (R)-1-(4-Methoxy-benzyl)-2-(2-pyridin-4-yl-5,6,7,8-tetrahydro-benzo[4,5]thieno[2,3-d]pyrimidin-4-yloxy)-ethylamine]: the IC50 was in the range of 10 to 40 µM.

Regarding `N[C@@H](COc1nc(-c2ccncc2)nc2sc3c(c12)CCCC3)Cc1cccs1` [compound 170, (R)-2-(2-Pyridin-4-yl-5,6,7,8-tetrahydro-benzo[4,5]thieno[2,3-d]pyrimidin-4-yloxy)-1-thiophen-2-ylmethyl-ethylamine], the IC50 lay within 10 to 40 µM.

As for `N[C@H](COc1nc(-c2ccncc2)nc2sc3c(c12)CCCC3)Cc1ccc(Br)cc1` [compound 171, (S)-1-(4-Bromo-benzyl)-2-(2-pyridin-4-yl-5,6,7,8-tetrahydro-benzo[4,5]thieno[2,3-d]pyrimidin-4-yloxy)-ethylamine], the IC50 lay within 1 to 10 µM.

Take `N[C@@H](COc1nc(-c2ccncc2)nc2sc3c(c12)CCCC3)Cc1ccc2ccccc2c1` [compound 172, (R)-1-Naphthalen-2-ylmethyl-2-(2-pyridin-4-yl-5,6,7,8-tetrahydro-benzo[4,5]thieno[2,3-d]pyrimidin-4-yloxy)-ethylamine]: the IC50 is 10 to 40 µM.

Regarding `N[C@@H](COc1nc(-c2ccncc2)nc2sc3c(c12)CCCC3)Cc1cccc2ccccc12` [compound 173, (R)-1-Naphthalen-1-ylmethyl-2-(2-pyridin-4-yl-5,6,7,8-tetrahydro-benzo[4,5]thieno[2,3-d]pyrimidin-4-yloxy)-ethylamine], the IC50 was 1 to 10 µM.
